Assay results as given in patent US6455303B1, “Detection of biologically active molecules by use of pre-activated cell-based biosensors in liquid-based separation systems” (Cellectricon AB, priority 1997, dated 2002).

What was measured:
AMPA receptors = assay: Capillary electrophoresis-patch clamp detection, kainate pre-activated whole-cell biosensor; type: cell-based; conditions: 100 μM KA in capillary; holding potential −70 mV; interneurons from rat olfactory bulb
Protocol: Separation of mixtures of glutamate receptor antagonists were performed using cell-based biosensor-compatible buffers. A cell-based biosensor-compatible buffer is a buffer which effectively keeps the cell-based biosensor in a functional and viable condition during the course of the experiment or the analysis procedure. slightly modified standard HEPES-saline buffer containing 140 mM NaCl, 5 mM KCl, 1 mM MgCl2, 1 mM CaCl2, 10 mM glucose and 10 mM HEPES (pH 7.4, NaOH) was used as extracellular and capillary buffer in examples 1 and 2 except in the separation of Mg^2+ where MgCl2 were omitted. As described in the examples, the preferred agonist were only—included in the capillary solution. […]
(§1) The patch clamp detection was performed in the whole-cell configuration as described by Hamill, et al. (see Hamill, O. P., et al, Pflug. Arch. 391:85, 1981). […] Patch pipettes were fabricated from thick-walled borosilicate glass (code no GC150-10, Clark Electromedical Instruments, Pangboume, Reading, UK). […]
(§2) The signals were recorded with a patch clamp amplifier (Model List L/M EPC-7, List-Electronic, Darmstadt, Germany), digitized (20 kHz, PCM 2 A/D VCR adapter, Medical Systems Corp., NY, USA), and stored on videotape. […]

[1] = test system: N-methyl-D-aspartate receptor; assay: Capillary electrophoresis-patch clamp detection, NMDA/glycine pre-activated whole-cell biosensor; type: cell-based, rat
Protocol: Separation of mixtures of glutamate receptor antagonists were performed using cell-based biosensor-compatible buffers. A cell-based biosensor-compatible buffer is a buffer which effectively keeps the cell-based biosensor in a functional and viable condition during the course of the experiment or the analysis procedure. slightly modified standard HEPES-saline buffer containing 140 mM NaCl, 5 mM KCl, 1 mM MgCl2, 1 mM CaCl2, 10 mM glucose and 10 mM HEPES (pH 7.4, NaOH) was used as extracellular and capillary buffer in examples 1 and 2 except in the separation of Mg^2+ where MgCl2 were omitted. As described in the examples, the preferred agonist were only—included in the capillary solution.
The cells used were interneurons from rat olfactory bulb acutely isolated according to the procedures described by Jacobson et al. (see Jacobson, I., Neurosci. Res. Comm. 8:11, 1991, and Jacobson, I., et al., Neurosci. Res. Comm. 10:177, 1992).
Newborn or adult rats (10-200 g) were anaesthetized with halothane (ISC Chemicals Ltd., Avonmouth, England) and decapitated. The olfactory bulbs were dissected and sliced into four pieces and placed in an incubation chamber. The chamber contained proteases from Aspergillus oryzae (2.5 mg/ml) which were dissolved in pre-warmed (32° C.) HEPES-saline buffer (see above). After 25-30 min., the slices were washed with the same buffer solution for 20 min. The solutions were constantly perfused with 95% O2 and 5% CO2 during both the enzymatic treatment arid the washing. […]
as §1, §2

[2] = voltage ramp −80 to +40 mV, NMDA receptor response attenuated by separated Mg^2+

SMILES	effect on KA-activated current responses (AMPA receptors)	effect on N-methyl-D-aspartate-activated current responses ([1]; Mg^2+ 2 mM injected, 200 μM NMDA and 20 μM glycine in capillary, holding potential −70 mV, interneurons from rat olfactory bulb)	current-to-voltage relationship: inward currents at membrane resting potentials [1, 2]	current-to-voltage relationship: outward currents at positive potentials [1, 2]
N#Cc1cc2c(cc1[N+](=O)[O-])=NC(=O)C(=O)N=2 [CNQX, 6-cyano-7-nitroquinoxaline-2,3-dione]	transient attenuations of KA-activated current responses			
[Mg+2] [Mg^2+]		transient Gaussian-distributed attenuation of N-methyl-D-aspartate-activated current responses	blockade of inward currents at membrane resting potentials	unaltered outward currents at positive potentials
O=C(O)c1nc2cc(Cl)c(Cl)cc2nc1O [DCQXC, 6,7-dichloro-3-hydroxy-2-quinoxaline-carboxylic acid]	transient attenuations of KA-activated current responses			
